Reference: paper PMC8311653, “Design, Synthesis, In Vitro and In Vivo Characterization of Selective NKCC1 Inhibitors for the Treatment of Core Symptoms in Down Syndrome” (Journal of Medicinal Chemistry, 2021)

Key:
[1] = In vitro mouse plasma stability; format: in vitro ADME; conditions: mouse plasma at 37 °C; incubated at 5 μM (final DMSO 0.1%); read-out: t1/2 plasma
[2] = test system: Ts65Dn mice; assay: T-maze test (short-term working memory); format: in vivo, mouse; conditions: ip 0.6 mg kg-1 daily, chronic (7-21 days)
Method: A veterinarian was employed to maintain the health and comfort of the animals. Mice were housed in filtered cages in a temperature-controlled room with a 12:12 h dark/light cycle and with ad libitum access to water and food. All efforts were made to minimize animal suffering and use the lowest possible number of animals required to produce statistical relevant results, according to the “3Rs concept”. In this study, we used Ts65Dn mice maintained in their original genetic background[57] by crossing (more than 40 times) Ts65Dn female to C57BL/6JEi × C3SnHeSnJ (B6EiC3) F1 males (Jackson Laboratories). Ts65Dn mice were genotyped by PCR as previously described.[58] Only males were used for behavioral experiments. Ts65Dn and controls were randomly assigned to vehicle groups (2% DMSO in saline), bumetanide (Sigma, 0.6 mg kg^–1 body weight), or 40 (0.6 mg kg^–1 body weight) and treated daily for ∼21 days by intraperitoneal injection (i.p.). On the day of behavioral testing, injection was performed 1 h before the task began.
Ts65Dn male mice (8–16 weeks old) were tested after 1 week of treatment with vehicle or 40 (0.6 mg kg^–1 i.p.). The battery of tests was run over a total period of ∼14 days (four behavioral tests with the following order Open Field, NOR, T-maze, and CFC). […] The tasks were video-recorded and then analyzed manually by a blind operator.

[3] = molecular target: T1, NKCC2 (Homo sapiens, UniProt Q13621); set-up: method as in PMID 32818158; conditions: 10 μM; cited from earlier work
T1 construct: host or cells: HEK293
T1 sequence (Q13621 1-1099): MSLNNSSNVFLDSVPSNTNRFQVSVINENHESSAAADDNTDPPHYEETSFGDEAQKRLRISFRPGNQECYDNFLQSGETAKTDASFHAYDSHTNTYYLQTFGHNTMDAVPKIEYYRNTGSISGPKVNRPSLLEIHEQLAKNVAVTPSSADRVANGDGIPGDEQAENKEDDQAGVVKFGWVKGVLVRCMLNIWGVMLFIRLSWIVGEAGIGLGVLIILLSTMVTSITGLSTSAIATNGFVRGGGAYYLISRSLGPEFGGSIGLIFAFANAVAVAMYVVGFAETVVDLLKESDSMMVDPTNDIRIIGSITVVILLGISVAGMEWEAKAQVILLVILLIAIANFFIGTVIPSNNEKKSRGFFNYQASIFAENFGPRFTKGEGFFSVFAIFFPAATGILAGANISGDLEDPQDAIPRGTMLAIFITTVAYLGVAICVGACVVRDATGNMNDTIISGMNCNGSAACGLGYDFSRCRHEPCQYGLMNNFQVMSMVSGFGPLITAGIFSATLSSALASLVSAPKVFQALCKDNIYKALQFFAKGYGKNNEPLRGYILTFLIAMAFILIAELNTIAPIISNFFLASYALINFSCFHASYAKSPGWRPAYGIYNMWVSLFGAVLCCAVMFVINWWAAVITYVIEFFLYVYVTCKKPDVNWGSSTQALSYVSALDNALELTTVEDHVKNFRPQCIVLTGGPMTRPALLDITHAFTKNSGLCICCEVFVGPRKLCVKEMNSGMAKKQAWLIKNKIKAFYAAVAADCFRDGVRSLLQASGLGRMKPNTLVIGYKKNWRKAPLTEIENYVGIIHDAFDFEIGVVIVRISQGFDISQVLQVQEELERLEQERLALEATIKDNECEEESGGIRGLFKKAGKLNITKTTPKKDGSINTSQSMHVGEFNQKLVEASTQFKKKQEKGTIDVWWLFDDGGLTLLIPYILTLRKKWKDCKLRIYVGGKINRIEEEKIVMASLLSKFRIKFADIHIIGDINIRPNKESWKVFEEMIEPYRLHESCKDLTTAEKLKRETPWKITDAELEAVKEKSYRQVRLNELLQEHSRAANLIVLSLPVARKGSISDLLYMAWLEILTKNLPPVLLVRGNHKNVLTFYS

| Structure (SMILES) | half-life at 5 μM [1] [h] | short-term working memory in the T-maze test (number of correct choices) [2] | inhibition of NKCC2 in the Cl- influx assay [3] |
| --- | --- | --- | --- |
| CN(C)S(=O)(=O)c1cc(C(=O)O)c(O)cc1NCCCCCCCC(F)(F)F [Compound 40, 5-(N,N-Dimethylsulfamoyl)-2-hydroxy-4-((8,8,8-trifluorooctyl)amino)benzoic Acid] | > 2 | fully restored |  |
| CN(C)S(=O)(=O)c1cc(C(=O)O)ccc1NCCCCCCCC(F)(F)F [Compound 1, 3-(-N,N-Dimethylsulfamoyl)-4-(8,8,8-trifluorooctylamino)benzoic Acid] | > 2 |  | did not show any significant inhibition |
